Reference: US20220387392A1, “METHODS AND COMPOSITIONS RELATED TO THE USE OF ERGOTHIONEINE” (priority 2020, published 2022)

How the values were obtained:
[1] = tested on: primary neonatal fibroblast cells; assay: MTT assay, cytotoxicity of ergothioneine; type: cell-based, human; settings: all concentrations tested (0.04, 0.1, 0.3, and 1.0 mg/ml); 72 hours and one week; with and without 10 μM H2O2
Procedure: (§1) Primary cultures of human neonatal dermal fibroblasts (ATCC® PCS-201-010™) were established under standard culture conditions. Cells were seeded at 3×10^3 cells/cm^2 and were grown and maintained in Fibroblast Medium (Innoprot).
The MTT assay is a colorimetric assay that uses a yellow tetrazolium salt (3-(4,5-dimethylthiazol-2-yl)-2,5-diphenyltetrazolium bromide, or MTT) to measure metabolic activity of cells as a proxy for cell viability. MTT reduction rate is an indicator of the functional integrity of the mitochondria and as a result, of cellular viability. To determine the cytotoxicity of ergothioneine on primary neonatal fibroblast cells, the cells were seeded in 96 well plates (Nunc) at 0.35×10^4 cells/plate and 0.5×10^4 cells/plate for 72 hours and 1-week treatment. After 24 hours from seeding, the cells were washed once with phosphate-buffered saline (PBS) and treated with the respective compounds in cell culture media. Ergothioneine was dissolved in dimethyl sulfoxide (DMSO). […] Each condition was tested in triplicates with and without 10 μM H2O2. For positive and negative controls, 8 mM methyl methane sulfonate (MMS) and DMSO 100% were used, respectively. […] Absorbance was measured using an Envision multiplate reader at a wavelength of 570 nm.
The percentage of cell death was calculated using the following equation: […]

[2] = tested on: primary neonatal fibroblast cells; assay: Morphological analysis through optical microscopy visualization; type: cell-based, human; settings: concentrations of up to 1.0 mg/ml
[3] = tested on: neonatal human fibroblast cells; assay: Proliferative analysis (population doubling, growth curves); type: cell-based
Procedure: (§2) Primary cultures of neonatal human fibroblast cells were established. Cells were seeded at 5×10^3 cells/cm^2), in Fibroblast Medium (Innoprot). Media was renewed every 2 to 3 days and cells were passaged at sub-confluence (70-80%) every 7 days. Cells were expanded during eight weeks under standard and oxidative (10 μM H2O2) cell culture condition as described previously. Different concentrations of ergothioneine (0.04, 0.3, 0.1, and 1.0 mg/ml) or vehicle control were added to the treated or control cells, respectively. Treatment dilutions were prepared fresh in each passage with fresh media. Cell growth was monitored for each condition by counting cell numbers at each passage using a Countess™ cell counter (Invitrogen). Population doubling (PD) was calculated with the formula PD=3.322(Log(Cf)−Log (Ci))+X (where, Cf: Final concentration; Ci: initial concentration; X: PD last passage). One PD is equivalent to one round of cell replication.
(§3) Each treatment was tested in triplicate and in different plates. Each plate contained a control sample. Frozen vials were obtained at different time points for analysis of relative telomerase activity and telomere length.

[4] = tested on: telomerase; assay: Relative telomerase activity (Q-TRAP); type: cell-based, human
Procedure: The quantitative polymerase chain reaction (PCR)-based telomeric repeat amplification protocol (Q-TRAP) is a sensitive and accurate PCR-based assay that enables the measurement of telomerase activity. Cellular pellets from neonatal fibroblast cells were lysed using the CHAPS (3-cholamidopropyl dimethylammonio 1-propanesulfonate) lysis buffer for protein extraction. Samples were stored at 4° C. and were used within 24 hours. Protein quantification was performed for each sample using Biorad protein assay (Bio-Rad Kit 50000002). A minimum of 0.3 mg/ml protein concentration was required to proceed with the analysis of the samples. Telomerase protein extracts are then incubated at 27° C. for 30 min to allow the telomerase in the protein extracts to elongate the TS primer by adding TTAGGG repeat sequences. Following the enzymatic reaction, telomerase extension products are then amplified and quantified by real-time qPCR using SYBR Green (a green fluorescent cyanine dye). PCR was initiated at 95° C. for 10 min, followed by a 40-cycle amplification (95° C. for 15 s, 60° C. for 60 s) and a melt curve stage step. Reactions were monitored and analyzed with QuantStudio 5 (Applied Biosystems). Telomerase activity in cell lines or samples is calculated based on the threshold cycle (Ct). All samples were run in triplicate.
The telomerase-positive standard dilution series is plotted against the telomere protein concentration (r^2>0.9) as a standard curve of Ct values. The standard curve is generated by graphing threshold cycles (Ct values) of HeLa cell line standards against log of 1000, 333, 111, 37.03, 12.34, 4.11, 1.37 and 0.45 ng of protein (whole cell extract).

[5] = tested on: human neonatal dermal fibroblasts; assay: Telomere length measurement by Telomere Analysis Technology (TAT, HT Q-FISH); type: cell-based; settings: for proportion of short telomeres (<3 kbp): control 8.1±0.6
Procedure: as §1, §2, §3
All telomere length measurements were performed using Life Length's proprietary Telomere Analysis Technology (TAT®). TAT® measures telomere length using a high-throughput (HT) Q-FISH (quantitative fluorescent in situ hybridization) technique as previously described. This method is based on a quantitative fluorescence in-situ hybridization method modified for measuring individual chromosomes of cells in interphase. In brief, telomeres are hybridized with a fluorescent Peptide Nucleic Acid probe (PNA) that recognizes three telomere repeats (sequence: Alexa488-OO-CCCTAACCCTAACCCTAA, purchased from Panagene). The images of the nuclei and telomeres are captured by a high-content screen system. The intensity of the fluorescent signal from the telomeric PNA probes that hybridize to a given telomere is proportional to the length of that telomere. The intensities of fluorescence are translated to base pairs (bp) through a standard regression curve which is generated using control cell lines with known telomere length. TAT® not only measures telomere length in absolute base pair units, it also provides an assessment of the distribution, 50th and 20th percentiles of telomere length and the percent of short telomeres, allowing for a more comprehensive analysis of each sample. All samples are run in quintuplicate.
Results obtained from each treatment and at each time point were compared with the appropriate control group using Student's t test (independent samples t-test).

[6] = ingested; rats; cited from earlier work
[7] = humans, supplementation for 7 days, cited from earlier work

C[N+](C)(C)[C@@H](Cc1c[nH]c(=S)[nH]1)C(=O)[O-] [ergothioneine]
cell death [1]: < 20% | deleterious effects by morphological analysis [2]: did not produce any deleterious effects | proliferative capacity vs control ([3]; oxidative culture conditions (10 μM H2O2), 1.0 or 0.3 mg/ml, after Week 4): increase in their proliferative capacity | proliferative capacity vs control ([3]; standard culture conditions, 0.04-1.0 mg/ml, 8 weeks): no differences | telomerase activity vs control cells ([4]; 6 hours, all dose levels): significantly lower | telomerase activity, higher compared with control cells ([4]; 24 hours, all dose levels, p<0.05): 50-90% | telomerase activity vs control ([4]; 48 hours, statistically significant only for 0.04 mg/ml and 1.0 mg/ml): still elevated | telomerase activity vs control ([4]; 72 hours): not significantly different | effect on telomeres (FIG. 7D) ([5]; dose of 0.3 mg/ml): telomere lengthening | median telomere length vs control ([5]; oxidative conditions (10 μM H2O2), Week 4, 0.1 or 1.0 mg/ml, p<0.05): higher median telomere length | median telomere length ([5]; oxidative conditions (10 μM H2O2), Week 8, 0.04 mg/ml, control 8725±94): 9015±112 bp | median telomere length ([5]; oxidative conditions (10 μM H2O2), Week 8, 0.1 mg/ml, control 8725±94): 8794±212 bp | median telomere length ([5]; oxidative conditions (10 μM H2O2), Week 8, 0.3 mg/ml, control 8725±94 bp, in bp): 9068±24 | median telomere length ([5]; oxidative conditions (10 μM H2O2), Week 8, 1.0 mg/ml, control 8725±94): 8997±171 bp | 20th percentile telomere length vs control ([5]; oxidative conditions, Week 4, 0.1, 0.3, or 1.0 mg/ml, p<0.05): greater telomere length | reduction of telomere shortening rate ([5]; oxidative conditions, Week 4, all concentrations, significant for 0.04, 0.1 and 1.0 mg/ml): 27-52% | percentage of short telomeres (<3 kbp) vs control ([5]; oxidative conditions, Week 4 and Week 8, all concentrations): reduced the percentage of short telomeres | 20th percentile telomere length vs control ([5]; oxidative conditions, Week 8, all concentrations): significant increases | telomere shortening rate vs control ([5]; oxidative conditions, Week 8, did not reach statistical significance): appeared to be lower | 20th percentile telomere length vs control ([5]; standard conditions, Week 4, 0.3 mg/ml or 1.0 mg/ml): greater | proportion of short telomeres (<3 kbp) ([5]; standard conditions, Week 4, 0.3 mg/ml): 7.3±1.1% | median telomere length ([5]; standard conditions, Week 4, 0.3 mg/ml, control 9378±107): 9637±340 bp | proportion of short telomeres (<3 kbp) ([5]; standard conditions, Week 4, 1.0 mg/ml): 6.8±1.0% | median telomere length ([5]; standard conditions, Week 4, 1.0 mg/ml, control 9378±107): 9745±206 bp | telomere shortening rate vs control ([5]; standard conditions, Week 4, 1.0 mg/ml, p=0.09): trend for decreased telomere shortening rate | telomere shortening rate vs control ([5]; standard conditions, Week 4, 0.1 or 0.3 mg/ml, normalized by population doublings): significantly lower | protective effects on telomeres seen at Week 4 ([5]; standard conditions, Week 8): no longer present | whole-body half-life [6]: 1 month | concentration in whole blood ([7]; approximately): 30 to 40 µM | concentration in plasma [7]: approximately 3 μM
